“And” between values parts separate entries of the source, which are not always exact repeats. Identical values can stand only once. Positions of bridges follow the written chain, without caps; N, C: chain ends. Residues, ends and D or L forms follow the SMILES beside them.
Columns and labels:
[1] = system: anesthetized male SD rats; experiment: In-vivo activity assay: peptide infusion in anesthetized rats (MAP, HR, PP, urine flow); design: species or system rat
Protocol: Male Sprague-Dawley (SD) rats (220-280 g) were obtained from Invivos, Singapore. Animals were acclimatized in the Animal Holding unit, NUS for 3 days before the experiment. The experiments were conducted under the guidance and approval of Institutional Animal Care and Use Committee, NUS (041/12).
The experiments were performed as described in Sridharan et al., [Biochem J 469 (2): 255-66 (2015)]. In brief, animals were anesthetized with sodium pentobarbital (60-70 mg/kg) and catheters were inserted in femoral artery, vein and urinary bladder. The body temperature of the animals was maintained using a thermostatic heat pad at 37° C. Continuous infusions (2 ml/h) of 0.2% BSA saline (with or without peptide) was administered through the femoral vein while a pressure transducer attached to the femoral artery recorded on-line changes in mean arterial pressure (MAP), heart rate (HR) and pulse pressure (PP). Urine was collected and the volume was measured after every 10 min. Experiments encompassed control (2×10 min), experimental (1×10 min) and recovery (4×10 min) periods. All animals were euthanized at the end of the experiment in carbon-di-oxide chambers.

rat NPR-A [2] = biological target: T1, rat NPR-A (Rattus norvegicus, UniProt P18910); experiment: Time-chase study of cGMP accumulation (NPR-A activation kinetics) at EC50 concentration of peptide; type: cell-based; settings: for Rate of generation of cGMP / time of peak / maximum accumulation of cGMP: EC50 concentration of peptide
T1 construct: expressed in transfected cells; host or cells: CHO-K1
T1 sequence (P18910 29-1057): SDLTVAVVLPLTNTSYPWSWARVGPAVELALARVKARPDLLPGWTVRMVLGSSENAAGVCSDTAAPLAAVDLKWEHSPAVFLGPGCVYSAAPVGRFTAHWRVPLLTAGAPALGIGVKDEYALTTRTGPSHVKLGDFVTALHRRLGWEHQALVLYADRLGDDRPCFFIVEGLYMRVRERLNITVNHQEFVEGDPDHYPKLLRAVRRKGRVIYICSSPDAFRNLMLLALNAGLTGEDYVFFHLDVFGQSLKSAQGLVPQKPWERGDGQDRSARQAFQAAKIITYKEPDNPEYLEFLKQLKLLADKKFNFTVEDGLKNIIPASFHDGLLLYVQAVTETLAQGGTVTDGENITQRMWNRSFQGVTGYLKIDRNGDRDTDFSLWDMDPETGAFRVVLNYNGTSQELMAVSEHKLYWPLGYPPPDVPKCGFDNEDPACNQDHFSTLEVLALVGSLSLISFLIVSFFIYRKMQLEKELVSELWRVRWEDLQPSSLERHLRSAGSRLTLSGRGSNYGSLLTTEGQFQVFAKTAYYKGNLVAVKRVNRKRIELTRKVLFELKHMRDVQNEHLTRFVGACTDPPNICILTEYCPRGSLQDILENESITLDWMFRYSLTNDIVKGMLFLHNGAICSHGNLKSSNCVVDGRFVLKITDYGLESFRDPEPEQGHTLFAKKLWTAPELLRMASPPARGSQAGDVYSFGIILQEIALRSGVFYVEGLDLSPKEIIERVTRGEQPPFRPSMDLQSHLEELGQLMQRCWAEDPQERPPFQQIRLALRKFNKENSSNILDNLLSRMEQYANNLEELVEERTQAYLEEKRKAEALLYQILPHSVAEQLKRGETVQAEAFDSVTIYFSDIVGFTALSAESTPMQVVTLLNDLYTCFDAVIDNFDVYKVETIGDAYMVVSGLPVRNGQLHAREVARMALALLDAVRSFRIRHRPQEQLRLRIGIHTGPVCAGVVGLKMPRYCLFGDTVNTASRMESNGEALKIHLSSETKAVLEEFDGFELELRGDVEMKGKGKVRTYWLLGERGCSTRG
Protocol: (§1) The experiments were performed as described in Sridharan et al., [Biochem J 469 (2): 255-66 (2015)]. Dulbecco's modified Eagle's medium supplemented with 10% fetal bovine serum, 100 U/ml penicillin and 100 μg/ml streptomycin and 2 mM glutamine was used to grow CHO-K1 cells in a humidified incubator at 37° C. with 5% CO2. The cells were maintained by sub-culturing using 0.5% trypsin every three days. Cells (1×10^5) were seeded per well in 24-well plate and grown for 16 h. Cells in each well were transfected with 0.8 μg of plasmid encoding rat NPR-A using 2 μl of Lipofectamine™ 2000 transfection reagent. Cells were treated with the peptides 24 h after transfection.
Time-chase study was performed by treating the cells with EC50 concentration of the peptides. The reactions were terminated at the indicated time-points (0, 2, 5, 10, 20 and 30 min) by treating the cells with 0.1 N HCl. The cGMP concentration in the cell lysate was measured using cGMP ELISA kit (Enzo life sciences).

rat NPR-A [3] = biological target: T1, rat NPR-A; experiment: Whole cell cGMP assay, 30 min end-point dose-response in CHO-K1 cells transiently expressing NPR-A; type: cell-based; settings: for fold drop in activity compared to ANP: cGMP response; for NPR-A activation potency, Ratio compared wild type NPs: negative = more potent than wild type
Protocol: as §1
NPR-A transfected CHO-K1 cells were treated with varying concentrations of peptides (10 nM to 10 μM dissolved in basal media containing 0.5 mM IBMX) for 30 min. The end-point accumulation of cGMP was measured after cell-lysis with 200 μl of 0.1 N HCl using Enzo life sciences cGMP ELISA kit (manufacturer's protocol).

[4] = 2.0 nmol/kg/min infusion, listed as DRDAND
[5] = equimolar infusion (2 nmol/kg/min)

| SMILES | Heart rate Peak time ([1]; 0.2 nmol/kg/min infusion) | Mean arterial pressure Peak response ([1]; 0.2 nmol/kg/min infusion) | Mean arterial pressure Peak time ([1]; 0.2 nmol/kg/min infusion) | Pulse pressure Peak time ([1]; 0.2 nmol/kg/min infusion) | Urine flow rate Peak response ([1]; 0.2 nmol/kg/min infusion) | Rate of generation of cGMP, Ratio compared ANP (rat NPR-A [2]) | Rate of generation of cGMP, Ratio compared wild type NPs (rat NPR-A [2]) | times slower activation kinetics compared to the wild type (ANP) (rat NPR-A [2]) | Rate of generation of cGMP (rat NPR-A [2]) | time of peak / maximum accumulation of cGMP (rat NPR-A [2]) | NPR-A activation potency, Ratio compared ANP (rat NPR-A [3]) | fold drop in activity compared to ANP (rat NPR-A [3]) | NPR-A activation potency, Ratio compared wild type NPs (rat NPR-A [3]) | HR Rate of change per unit change in MAP ([1]; 2 nmol/kg/min infusion) | PP Rate of change per unit change in MAP ([1]; 2 nmol/kg/min infusion) | Mean arterial pressure Peak response ([1]; 2.0 nmol/kg/min infusion) | Urine flow rate Peak Time ([1]; 2.0 nmol/kg/min infusion) | Urine flow rate Peak response ([1]; 2.0 nmol/kg/min infusion) | also measured |
| --- | --- | --- | --- | --- | --- | --- | --- | --- | --- | --- | --- | --- | --- | --- | --- | --- | --- | --- | --- |
| CC[C@H](C)[C@@H]1NC(=O)[C@H](CCCNC(=N)N)NC(=O)[C@H](CC(=O)O)NC(=O)[C@H](CCSC)NC(=O)[C@H](CCCNC(=N)N)NC(=O)CNC(=O)CNC(=O)[C@H](Cc2ccccc2)NC(=O)[C@@H](NC(=O)[C@H](CO)NC(=O)[C@H](CO)NC(=O)[C@H](CCCNC(=N)N)NC(=O)[C@H](CCCNC(=N)N)NC(=O)[C@H](CC(C)C)NC(=O)[C@@H](N)CO)CSSC[C@@H](C(=O)N[C@@H](CC(N)=O)C(=O)N[C@@H](CO)C(=O)N[C@@H](Cc2ccccc2)C(=O)N[C@@H](CCCNC(=N)N)C(=O)N[C@@H](Cc2ccc(O)cc2)C(=O)O)NC(=O)CNC(=O)[C@H](CC(C)C)NC(=O)CNC(=O)[C@H](CO)NC(=O)[C@H](CCC(N)=O)NC(=O)[C@H](C)NC(=O)CNC1=O [ANP, reference compound] | 30 min | −10.1±0.8 mmHg and −10.1 ± 1.9 mmHg | 30 min | 40 min | 8.8 ± 1.3 µL/min |  |  |  |  |  |  |  |  |  |  |  |  |  | Heart rate Peak response ([1]; 0.08 nmol/kg/min infusion): −7.8 ± 2.4 BPM; Pulse pressure Peak response ([1]; 0.08 nmol/kg/min infusion): −2.1 ± 1.5 mmHg; Urine flow rate Peak Time ([1]; 0.08 nmol/kg/min infusion): 20 min; Urine flow rate Peak response ([1]; 0.08 nmol/kg/min infusion): 5.4 ± 1.4 µL/min; Mean arterial pressure Peak response ([1]; 0.08 nmol/kg/min infusion, anesthetized rats): −1.6 ± 1.5 mmHg; HR Rate of change per unit change in MAP ([1]; 0.2 nmol/kg/min infusion): 5.6; PP Rate of change per unit change in MAP ([1]; 0.2 nmol/kg/min infusion): 0.5; Pulse pressure Peak response ([1]; 0.2 nmol/kg/min infusion): −7.7±3.9 mmHg and −7.7±1.8 mmHg; Urine flow rate Peak Time ([1]; 0.2 nmol/kg/min infusion): 20 min |
| CC[C@H](C)[C@@H]1NC(=O)[C@H](CCCNC(=N)N)NC(=O)[C@H](CC(=O)O)NC(=O)[C@H](CCSC)NC(=O)[C@H](CCCNC(=N)N)NC(=O)CNC(=O)[C@H](CC(=O)O)NC(=O)[C@H](Cc2ccccc2)NC(=O)[C@@H](NC(=O)[C@H](CO)NC(=O)[C@H](CO)NC(=O)[C@H](CCCNC(=N)N)NC(=O)[C@H](CCCNC(=N)N)NC(=O)[C@H](CC(C)C)NC(=O)[C@@H](N)CO)CSSC[C@@H](C(=O)N[C@@H](CC(N)=O)C(=O)N[C@@H](CO)C(=O)N[C@@H](Cc2ccccc2)C(=O)N[C@@H](CCCNC(=N)N)C(=O)N[C@@H](Cc2ccc(O)cc2)C(=O)O)NC(=O)CNC(=O)[C@H](CC(C)C)NC(=O)[C@H](CC(=O)O)NC(=O)[C@H](CO)NC(=O)[C@H](CCC(N)=O)NC(=O)[C@H](C)NC(=O)CNC1=O [^DGDANP] (H-SLRRSSCFDGRMDRIGAQSDLGCNSFRY-OH; disulfide 7-23; N-terminus assumed) |  |  |  |  |  | 56.9 | 56.9 | 7.8 times | 0.14 pmol cGMP/pmol peptide | 10 min | 7.8 | 8 fold | 7.8 | 4.4 | 0.5 | −4.8±2.3 mmHg and −4.8 ± 2.9 mmHg | 30 min | 7.9 ± 2.1 µL/min and 7.9 ± 2.0 µL/min | delay of the peak of diuresis ([1]; 2 nmol/kg/min infusion): 10 min |
| CC[C@H](C)[C@@H]1NC(=O)[C@H](CCCNC(=N)N)NC(=O)[C@H](CC(=O)O)NC(=O)[C@H](CCSC)NC(=O)[C@H](CCCNC(=N)N)NC(=O)[C@H](CCCNC(=N)N)NC(=O)[C@H](CC(=O)O)NC(=O)[C@H](Cc2ccccc2)NC(=O)[C@@H](NC(=O)[C@H](CO)NC(=O)[C@H](CO)NC(=O)[C@H](CCCNC(=N)N)NC(=O)[C@H](CCCNC(=N)N)NC(=O)[C@H](CC(C)C)NC(=O)[C@@H](N)CO)CSSC[C@@H](C(=O)N[C@@H](CC(N)=O)C(=O)N[C@@H](CO)C(=O)N[C@@H](Cc2ccccc2)C(=O)N[C@@H](CCCNC(=N)N)C(=O)N[C@@H](Cc2ccc(O)cc2)C(=O)O)NC(=O)CNC(=O)[C@H](CC(C)C)NC(=O)[C@H](CC(=O)O)NC(=O)[C@H](CO)NC(=O)[C@H](CCC(N)=O)NC(=O)[C@H](C)NC(=O)CNC1=O [^DRDANP] (H-SLRRSSCFDRRMDRIGAQSDLGCNSFRY-OH; disulfide 7-23; N-terminus assumed) | 30 min | −12.9±1.5 mmHg | 30 min | 20 min | <2 µL/min | 21.0 | 21.0 | 2.6 times | 0.38 pmol cGMP/pmol peptide | 10 min | 2.6 | 3 fold | 2.6 | 4.5 | 0.5 | −18.3±2.3 mmHg | 20 min | 18.7 ± 0.7 µL/min | Heart rate Peak response ([1]; 0.2 nmol/kg/min infusion): −37.5±9.5 BPM; diuresis ([1]; 0.2 nmol/kg/min infusion): failed to induce diuresis; Heart rate Peak response ([1]; 2.0 nmol/kg/min infusion): −66.6±14.6 BPM; Heart rate Peak time ([1]; 2.0 nmol/kg/min infusion): 30 min; Mean arterial pressure Peak time ([1]; 2.0 nmol/kg/min infusion): 30 min; Pulse pressure Peak response ([1]; 2.0 nmol/kg/min infusion): −7.9±1.8 mmHg; Pulse pressure Peak time ([1]; 2.0 nmol/kg/min infusion): 20 min; Heart rate Peak response [1, 4]: −66.6 ± 14.5 BPM; Mean arterial pressure Peak response [1, 4]: −18.4 ± 2.4 mmHg; Pulse pressure Peak response [1, 4]: −8.0 ± 1.8 mmHg; Urine flow rate Peak response [1, 4]: 18.8 ± 0.7 µL/min; diuresis compared to K-Ring^NSFRY [1, 5]: 2 fold; influence on HR compared to K-Ring^NSFRY [1, 5]: 2 fold |
